Assays:
Biodistribution in rats = assay type: in vivo, male rats; conditions: i.v.
Method: Biodistribution in Rats--Methods
The quantitative biodistribution was studied in male rats at 2 minutes, 1 hour and 4 hours post-injection
Rats under light anaesthesia were injected intravenously with 0.1 ml of test agent. Three rats were sacrificed (anaesthesia followed by exsanguination) at 2, 60 and 240 minutes, post-injection. The percentage of the injected dose in the excreta and organs and tissues was determined by dissection and assay for radioactivity in an automatic gamma counter.

[1] = tested on: isolated (Langendorff) rat hearts; assay: Isolated perfused heart (Langendorff), hypoxic vs oxic uptake/retention; conditions: for Hypoxic/Oxic Ratio (H/O): ^99m Tc complex (or ^123 I-IAZA), 20 min infusion, 15 min washout; for Normalised Hypoxic Retention: relative to ^3 H-misonidazole activity
Method: A 15-minute cold buffer washout period follows. y activity in the heart is monitored using a collimated NaI probe detector positioned over the heart.
Activity in hearts, relative to perfusate activity, is calculated for each nuclide and data evaluated for each compound for activity in hypoxic and oxic hearts (hypoxic:oxic ratio) and also relative to the 3 H-misonidazole activity (normalised retention) using Formula 1. [formula] Results

[2] = 2 min post-injection, ^99m Tc complex
[3] = 240 min post-injection (third printed value)
[4] = second of two values, 60 or 240 min not assignable

Structure (SMILES)	Bladder/Urine (Biodistribution in rats; 2 min post-injection) [percent injected dose]	Blood (Biodistribution in rats; 2 min post-injection) [percent injected dose]	Gut (Biodistribution in rats; 2 min post-injection) [percent injected dose]	Kidney (Biodistribution in rats; 2 min post-injection) [percent injected dose]	Liver (Biodistribution in rats; 2 min post-injection) [percent injected dose]	Muscle (Biodistribution in rats; [2]) [percent injected dose]	Gut (Biodistribution in rats; 60 min post-injection) [percent injected dose]	Muscle (Biodistribution in rats; 60 min post-injection) [percent injected dose]	Muscle (Biodistribution in rats; [3]) [percent injected dose]	Gut (Biodistribution in rats; 240 min post-injection) [percent injected dose]	Blood (Biodistribution in rats; [4]) [percent injected dose]	Kidney (Biodistribution in rats; [4]) [percent injected dose]	Liver (Biodistribution in rats; [4]) [percent injected dose]	Hypoxic/Oxic Ratio (H/O) [1]	Normalised Hypoxic Retention [1]	hypoxia selectivity / hypoxic/oxic ratio / hypoxic retention (in words) [1]
CCC(=NO)C(C)(C)NCCCCNC(C)(C)C=NO [Compound VII, 3,8-diaza-10-(hydroxyimino)-2,2,9,9-tetramethyl dodecanal oxime]	0.8	11.8	12.1	9.8	12.9	25.6	23.2	9.2	7.5	31.3	3.0	3.4	11.6	8.8	1.5	–
CCC(=NO)C(C)(C)NCCCCNC(C)(C)C(CC)=NO [Compound VIII, 5,10-diaza-4,4,11,11-tetramethyltetradecan-3,12-dione dioxime]	0.6	9.0	13.9	7.8	13.6	29.7	36.2	7.4	2.4	46.7	1.8	2.5	13.1	34	2.2	–
CC(C)(NCCCCNC(C)(C)C(Cn1ccnc1[N+](=O)[O-])=NO)C(Cn1ccnc1[N+](=O)[O-])=NO [Compound XI, 1,12-bis(2-Nitro-1-imidazolyl)-4,9-diaza-3,3,10,10-tetramethyldodecan-2,11-dione dioxime]	0.2	10.8	18.2	8.6	21.7	18.7	56.7	5.6	3.1	66.0	1.4	2.1	7.3	3.4	0.98	further reduces the hypoxia selectivity
CC(C)(C=NO)NCCCCNC(C)(C)C(Cn1ccnc1[N+](=O)[O-])=NO [Compound XII, 3,8-diaza-10-hydroxyimino-11-(2-nitro-1-imidazolyl)-2,2,9,9-tetramethylundecanal oxime]	1.2	10.8	13.4	13.3	16.0	23.9	31.9	8.2	5.2	35.5	2.0	5.5	11.0	9.5	1.9	little or no effect on both the hypoxic/oxic ratio and normalised hypoxic retention
